Data reported in US4695577A, “Anti-hypertensive agents” (University of Miami, priority 1979, dated 1987).

What was measured:
human urinary ACE = target: T1, human urinary ACE (Homo sapiens, UniProt P12821); test: ACE Activity Assay (hydrolysis of Benzoyl-GlyHisLeu); assay type: biochemical; conditions: purified human urinary ACE, in vitro, pH 8.0, 37° C; read-out: I50
T1 construct: The enzyme preparation was ACE purified from human urine; from tissue; host or cells: human urine
Method: These factors include the source of enzyme, its purity, the substrate used and its concentration, and the composition of the assay buffer. All I50 data reported herein have been performed with the same assay system and same enzyme (human urinary ACE) and with an approximately 1/2Km level of substrate and are therefore internally consistent.
To initiate the assay, 40 μl of enzyme and 10 μl of water or inhibitor dissolved in water were preincubated for five minutes at 37° C. […] To terminate the reaction, 1 ml of 0.1 M HCl was added, following which 1 ml of ethyl acetate was added. The mixture was agitated on a rotary mixer and centrifuged briefly to separate the phases.
An aliquot, 500 μl, of the ethyl acetate layer was transferred to a liquid scintillation vial containing 10 ml of Riafluor, trademark New England Nuclear Corporation, Boston, Mass. For determination of I50 values, enzyme activity in the presence of inhibitor at a series of different concentrations was compared to activity in the absence of inhibitor.

[1] = test system: Blood pressure response to angiotensin I; test: Intravenous effectiveness: blood pressure response to angiotensin I in anesthetized rats; assay type: in vivo, rat; conditions: intravenous 2 μmol/kg
Method: Rats (190-290 g body weight) were fasted overnight and then anesthetized with intraperitoneal pentobarbital, 50-60 mg/kg. Tracheostomy was performed and the animals were ventilated mechanically. A cannula was inserted into a femoral vein for injection of angiotensin I, and a second cannula was inserted into a common carotid artery for direct measurement of arterial blood pressure. Heparin, 1,000 units, was injected via the femoral vein to prevent coagulation. Blood pressure was measured with a pressure transducer connected to a polygraph. The rats were injected with 400 ng/kg of angiotensin I in 20 μl of 0.9 g % NaCl; an amount of angiotensin I sufficient to raise mean arterial blood pressure by 35 mm Hg. After the responsiveness of a given rat to angiotensin I was established, the named compound at 23 μmole/kg (drug dissolved in 0.15 ml of H2 O plus 10 μl of 1 N NaHCO3 ), was given via a stomach tube. At timed intervals, the effects of 400 ng/kg of angiotensin I on mean arterial blood pressure were tested. Results are shown below:
Anesthetized rats were prepared as described in Example 35. After the responsiveness of a given rat to angiotensin I was established, the named compound, at 2 μmol/kg, in a volume of 15 μl of 0.01 N sodium bicarbonate, was injected via a femoral vein. At timed intervals, the effects of angiotensin I, 400 ng/kg, on mean arterial blood pressure were tested.

T1 sequence (P12821 30-1232 limits assumed): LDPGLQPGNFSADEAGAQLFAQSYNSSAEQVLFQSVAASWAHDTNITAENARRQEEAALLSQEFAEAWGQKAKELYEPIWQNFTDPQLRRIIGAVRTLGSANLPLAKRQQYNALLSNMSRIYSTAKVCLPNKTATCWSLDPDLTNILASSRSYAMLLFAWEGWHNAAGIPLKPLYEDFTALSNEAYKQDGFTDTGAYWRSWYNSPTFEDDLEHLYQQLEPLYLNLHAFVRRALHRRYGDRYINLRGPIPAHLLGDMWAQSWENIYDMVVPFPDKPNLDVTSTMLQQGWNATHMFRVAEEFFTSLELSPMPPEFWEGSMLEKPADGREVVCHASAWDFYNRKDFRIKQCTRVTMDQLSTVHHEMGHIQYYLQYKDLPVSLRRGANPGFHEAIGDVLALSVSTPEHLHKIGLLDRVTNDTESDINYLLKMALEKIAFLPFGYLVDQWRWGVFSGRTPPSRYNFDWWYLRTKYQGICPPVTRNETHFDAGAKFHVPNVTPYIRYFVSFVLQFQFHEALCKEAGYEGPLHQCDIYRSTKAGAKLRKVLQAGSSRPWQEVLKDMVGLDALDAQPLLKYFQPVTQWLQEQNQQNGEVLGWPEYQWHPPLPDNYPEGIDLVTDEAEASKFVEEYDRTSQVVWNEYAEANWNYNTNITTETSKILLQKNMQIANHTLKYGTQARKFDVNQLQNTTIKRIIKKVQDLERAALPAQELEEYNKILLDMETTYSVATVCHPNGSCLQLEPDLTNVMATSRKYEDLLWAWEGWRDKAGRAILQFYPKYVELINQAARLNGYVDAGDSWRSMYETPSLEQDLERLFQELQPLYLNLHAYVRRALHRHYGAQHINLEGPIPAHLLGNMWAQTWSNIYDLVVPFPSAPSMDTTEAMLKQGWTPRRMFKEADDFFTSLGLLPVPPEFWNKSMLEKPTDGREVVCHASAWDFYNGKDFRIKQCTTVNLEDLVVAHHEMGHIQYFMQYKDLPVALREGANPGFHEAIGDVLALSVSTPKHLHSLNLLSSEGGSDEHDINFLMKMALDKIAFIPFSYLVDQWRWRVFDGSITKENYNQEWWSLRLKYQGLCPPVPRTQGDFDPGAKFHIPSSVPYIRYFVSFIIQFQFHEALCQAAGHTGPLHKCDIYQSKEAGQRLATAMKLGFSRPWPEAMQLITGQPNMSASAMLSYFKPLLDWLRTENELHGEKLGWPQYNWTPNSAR

SMILES	IC50 (human urinary ACE) [nM]	Blood pressure response to 400 ng/kg angiotensin I ([1]; 3 min)	Blood pressure response to 400 ng/kg angiotensin I ([1]; 9 min)	Blood pressure response to 400 ng/kg angiotensin I ([1]; 13 min)
C[C@H](CSC(=O)[C@H](Cc1ccccc1)NC(=O)OC(C)(C)C)C(=O)N1CCC[C@H]1C(=O)O [Example 13, N^α -[3-(N^α -Tertiary-Butyloxycarbonyl-L-Phenylalanylthio)-2-D-Methylpropanoyl]-L-Proline]	34	19 % of control	19 % of control	22 % of control
C[C@H](CSC(=O)[C@H](Cc1ccccc1)NC(=O)C1CCCC1)C(=O)N1CCC[C@H]1C(=O)O [Example 24, N^α -[3-(N^α -cyclopentylcarbonyl-L-phenylalanylthio)-2-D-methylpropanoyl]-L-proline]	7.5	–	–	–
